{"source": "paper PMC11432405", "about": "“Development of Novel Alaninamide Derivatives with Anticonvulsant Activity and Favorable Safety Profiles in Animal Models” (International Journal of Molecular Sciences, 2024)", "key": {"[1]": {"system": "maximal electroshock (MES) seizures", "assay": "maximal electroshock seizure (MES) test", "format": "in vivo, mice", "from_the_text": "Epilepsy is a multifaceted disorder with often unclear etiology, making it challenging to pinpoint a specific receptor or transporter as the definitive target. Consequently, the discovery of ASMs deviates from the traditional drug development pathway, which typically involves designing a new molecule, docking it with a specific biological target, and performing chemical synthesis, followed by in vitro assays. Instead, numerous animal seizure models, which mirror various types of human epileptic seizures, are initially employed in the process of new ASM discovery. This approach has been instrumental in the identification and introduction into clinical practice of all currently used ASMs and continues to be a cornerstone in the preclinical development of new anticonvulsants. The primary justification for prioritizing in vivo screening over in vitro binding and functional studies is the complex and often not fully elucidated mechanisms of action of known ASMs. This approach also facilitates the discovery of compounds with novel, previously undefined pharmacodynamic properties. In light of this, we evaluated all compounds obtained in the current studies using the MES test, which remains one of the most valuable preclinical screening models for tonic-clonic seizures, as well as partial convulsions with or without secondary generalization in humans. This test allows for a comprehensive assessment of the anticonvulsant efficacy of new ASM candidates and is considered highly relevant for predicting their therapeutic efficacy in human epilepsy. The MES test was carried out in mice following the intraperitoneal (i.p.) administration of a screening dose of 100 mg/kg in a group consisting of four animals. The efficacy of the compounds synthesized was evaluated at 0.5 h pretreatment time.\nFresh solutions were prepared daily for each experimentation session.\nEach group consisted of six animals."}, "[2]": {"system": "Cav1.2 (L-type) (dihydropyridine site)", "assay": "radioligand binding Cav1.2 (L-type) dihydropyridine site", "conditions": "100 µM, rat cerebral cortex", "procedure": "(§1) Binding/functional studies were performed commercially in Cerep Laboratories (Poitiers, France) using testing procedures described elsewhere. The general information is listed in Table S3 in the Supporting Information.\nTable S3. The general information of radioligand binding/functional assays.\nCa2+channel (L, dihydropyridine site) (antagonist radioligand) […]\n(§2) Assays were performed commercially in Eurofins Cerep SA (Celle l’Evescault, France) and Eurofins\n(§3) Panlabs Discovery Services Taiwan, Ltd. (New Taipei City, Taiwan), using procedures describe"}, "human recombinant MAO-B": {"target": "T1, human recombinant MAO-B (Homo sapiens, UniProt P27338)", "T1 construct": "purchased Sigma Aldrich", "T1 sequence (P27338 1-520)": "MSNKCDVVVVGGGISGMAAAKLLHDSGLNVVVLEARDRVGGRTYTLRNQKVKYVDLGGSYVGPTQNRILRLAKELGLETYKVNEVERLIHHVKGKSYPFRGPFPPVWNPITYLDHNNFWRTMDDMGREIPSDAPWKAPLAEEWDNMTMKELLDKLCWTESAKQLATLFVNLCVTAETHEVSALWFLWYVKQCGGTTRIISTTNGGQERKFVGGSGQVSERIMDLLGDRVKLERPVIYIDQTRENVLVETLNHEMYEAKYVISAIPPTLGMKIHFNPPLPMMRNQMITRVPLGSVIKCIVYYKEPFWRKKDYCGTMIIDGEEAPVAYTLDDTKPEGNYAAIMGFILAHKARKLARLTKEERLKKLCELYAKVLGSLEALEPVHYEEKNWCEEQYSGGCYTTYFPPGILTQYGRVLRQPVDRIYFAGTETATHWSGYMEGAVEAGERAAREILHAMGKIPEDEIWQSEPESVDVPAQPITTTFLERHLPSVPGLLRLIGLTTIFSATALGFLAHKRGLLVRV", "assay": "fluorometric monoamine oxidase B inhibition assay", "format": "biochemical", "conditions": "read-out: % inhibition MAO-B (1 µM), mean of two independent experiments"}, "Na+ channel (site 2)": {"system": "Na+ channel (site 2)", "assay": "radioligand binding Na+ channel (site 2)", "conditions": "100 µM, rat cerebral cortex", "procedure": "as §1\nTable S3. The general information of radioligand binding/functional assays. […]\nas §2, §3"}, "6 Hz (32 mA) seizures": {"system": "6 Hz (32 mA) seizures", "assay": "6 Hz (32 mA) psychomotor seizure model"}, "SH-SY5Y cells": {"system": "SH-SY5Y cells", "assay": "neurocytotoxicity MTT viability assay", "format": "cell-based, human", "conditions": "1–50 µM, 24 h", "procedure": "To evaluate selected compounds’ hepatocytotoxicity and neurocytotoxicity, a human hepatocellular carcinoma cell line, HepG2 (ATCC® HB-8065™), and a human neuroblastoma cell line, SH-SY5Y (ATCC®, CRL-2266™), were used. Both cell lines were cultured in standard culture conditions (5% CO2, 37 °C, 95% humidity) using Dulbecco′s Modified Eagle′s—Medium (DMEM; Gibco, Thermo Scientific, Waltham, MA, USA) supplemented with 10% (vol/vol) fetal bovine serum (FBS; Gibco, Thermo Scientific, Waltham, MA, USA) and an antibiotic mixture (Penicillin, Streptomycin, Amphotericin B; Gibco, Thermo Scientific, Waltham, MA, USA). Cells were cultured with compounds 5, […], or 39 (1–50 µM) for 24 h and then an MTT (3-(4,5-dimethylthiazol-2-yl)-2,5diphenyltetrazolium bromide, Sigma-Aldrich, St. Louis, MO, USA) viability assay was performed. The formazan crystals were dissolved in DMSO (Sigma-Aldrich, St. Louis, MO, USA), and the absorbance at 570 nm was measured using a microplate reader (SpectraMax® iD3, Molecular Devices, San Jose, CA, USA). The experiment was performed three times in duplicate. Each bar represents the mean (±SEM) percentage of viable cells in comparison to the control (defined as 100% and represented by untreated cells).\nFigure 3 The viability of SH-SY5Y cells incubated in the presence of compounds 5, 17, and 39. […] Cell viability was measured using an MTT assay. […]"}}, "note": "Like-named read-outs stand apart in the source and are kept apart here.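 Wherever ED50 6 Hz (32 mA) is given: adult male albino Swiss CD-1 mice, each used once, with compounds suspended in 1% Tween 80 in water as vehicle.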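 Wherever PI (TD50/ED50) 6 Hz is given: adult male albino Swiss CD-1 mice, each used once, with compounds suspended in 1% Tween 80 in water as vehicle.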", "data": [{"smiles": "CC(C(=O)NCc1ccc(OCc2ccccc2)cc1)N1C(=O)CCC1=O", "note": "(stereo not drawn) [Compound 5, N-(4-(benzyloxy)benzyl)-2-(2,5-dioxopyrrolidin-1-yl)propanamide]", "values": [{"measurement": "responders at 100 mg/kg", "setting": "[1]; Mus musculus, ip, mice i.p., 100 mg/kg, 0.5 h, four mice, read-out: protection (efficacy) in the MES screening", "value": 100, "unit": "%"}, {"measurement": "ED50", "setting": "[1]; Mus musculus, ip, mice i.p., TPE 0.5 h, 95% confidence interval in parentheses", "value": 48, "unit": "mg/kg"}, {"measurement": "responders at 100 mg/kg", "setting": "[1]; Mus musculus, ip, mice i.p., dose of 100 mg/kg, pretreatment time 0.5 h, read-out: MES test: number of mice protected / number of mice tested (converted)", "value": 100, "unit": "%"}, {"measurement": "PI (TD50/ED50) MES", "setting": "[1]; TD50 rotarod / ED50 MES", "value": "> 6.3"}, {"measurement": "% Inhibition of Control Specific Binding", "setting": "[2]", "value": "82.3 (100) %"}, {"measurement": "inhibition at 1 µM", "setting": "human recombinant MAO-B", "value": 0, "unit": "%"}, {"measurement": "% Inhibition of Control Specific Binding", "setting": "Na+ channel (site 2)", "value": "38.2 (100) %"}, {"measurement": "ED50", "setting": "6 Hz (32 mA) seizures; Mus musculus, ip, 0.5 h, read-out: ED50 6 Hz (32 mA), mice i.p., TPE 0.5 h, 95% confidence interval in parentheses", "value": 45.2, "unit": "mg/kg"}, {"measurement": "responders at 100 mg/kg", "setting": "6 Hz (32 mA) seizures; Mus musculus, ip, 0.5 h, read-out: protection (efficacy) in the 6 Hz (32 mA) screening", "value": 50, "unit": "%"}, {"measurement": "PI (TD50/ED50) 6 Hz", "setting": "6 Hz (32 mA) seizures; TD50 rotarod / ED50 6 Hz (32 mA)", "value": "> 6.6"}, {"measurement": "ED50 6 Hz (32 mA)", "setting": "6 Hz (32 mA) seizures; mice i.p., TPE 0.5 h, 95% confidence interval in parentheses", "value": "45.19 (37.31–54.73) mg/kg"}, {"measurement": "toxic effect on SH-SY5Y cell viability (MTT)", "setting": "SH-SY5Y cells", "value": "do not exhibit toxic effects"}]}]}
